Measured values from PubChem BioAssay (NCI).
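In this assay, cells in 96-well plates receive the compound at five concentrations for 48 hours. Endpoints are linearly interpolated between the surrounding concentrations. At the TGI there is no net growth.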

Assays:
Assay in all cases: NCI anticancer screen, dose series, 48 h
[1] = tested on: MOLT-4 leukemia
[2] = tested on: HL-60(TB) leukemia
[3] = tested on: CAKI-1 renal
[4] = tested on: NCI-H522 lung
[5] = tested on: HOP-62 NSCLC
[6] = tested on: SF-539 CNS
[7] = tested on: UACC-257 melanoma
[8] = tested on: M14 melanoma
[9] = tested on: 786-0 renal
[10] = tested on: SNB-19 CNS
[11] = tested on: SF-295 CNS
[12] = tested on: SN12C renal
[13] = tested on: SK-OV-3 ovarian
[14] = tested on: HCC-2998 colon
[15] = tested on: RPMI-8226 leukemia
[16] = tested on: SF-268 CNS
[17] = tested on: A549 NSCLC
[18] = tested on: LOX IMVI melanoma
[19] = tested on: U251 CNS
[20] = tested on: HCT-15 colon
[21] = tested on: UACC-62 melanoma
[22] = tested on: NCI-H460 lung
[23] = tested on: CCRF-CEM leukemia
[24] = tested on: DMS 114 small cell lung
[25] = tested on: RXF-631 renal
[26] = tested on: HT29 colon
[27] = tested on: EKVX NSCLC
[28] = tested on: NCI-H226 lung
[29] = tested on: HCT-116 colon
[30] = tested on: HOP-92 NSCLC
[31] = tested on: XF 498 CNS
[32] = tested on: M19-MEL melanoma
[33] = tested on: SK-MEL-5 melanoma
[34] = tested on: MALME-3M melanoma
[35] = tested on: A498 renal
[36] = tested on: OVCAR-4 ovarian
[37] = tested on: OVCAR-5 ovarian
[38] = tested on: OVCAR-8 ovarian
[39] = tested on: NCI-H23 lung
[40] = tested on: UO-31 renal
[41] = tested on: ACHN renal
[42] = tested on: OVCAR-3 ovarian
[43] = tested on: KM20L2 colon
[44] = tested on: LXFL 529 NSCLC
[45] = tested on: COLO 205 colon
[46] = tested on: IGROV1 ovarian
[47] = tested on: DLD-1 colon
[48] = tested on: TK-10 renal
[49] = tested on: SNB-75 CNS
[50] = tested on: KM12 colon
[51] = tested on: HOP-18 NSCLC
[52] = tested on: SW-620 colon
[53] = tested on: RXF 393 renal
[54] = tested on: SK-MEL-28 melanoma
[55] = tested on: SR leukemia
[56] = tested on: K-562 leukemia
[57] = tested on: SNB-78 CNS
[58] = tested on: DMS 273 small cell lung
[59] = tested on: SK-MEL-2 melanoma

Question: Which results are given for N#CC(/C(CCCC(=O)Nc1cccc([N+](=O)[O-])c1)=N/NC(=O)c1cc2ccccc2cc1O)c1ccccc1 (stereo unspecified)?
Answer: TGI [1]: > 100 µM; TGI [2]: 48.7 µM; TGI [3]: > 100 µM; TGI [4]: 56.9 µM; TGI [5]: > 100 µM; TGI [6]: 72.5 µM; TGI [7]: 98.5 µM; TGI [8]: 39.6 µM; TGI [9]: 96.3 µM; TGI [10]: > 100 µM; TGI [11]: > 100 µM; TGI [12]: > 100 µM; TGI [13]: > 100 µM; TGI [14]: > 100 µM; TGI [15]: > 100 µM; TGI [16]: > 100 µM; TGI [17]: > 100 µM; TGI [18]: 49.4 µM; TGI [19]: > 100 µM; TGI [20]: > 100 µM; TGI [21]: 45 µM; TGI [22]: > 100 µM; TGI [23]: 43.3 µM; TGI [24]: 45.5 µM; TGI [25]: > 100 µM; TGI [26]: > 100 µM; TGI [27]: > 100 µM; TGI [28]: > 100 µM; TGI [29]: > 100 µM; TGI [30]: 95.9 µM; TGI [31]: 63 µM; TGI [32]: 34.9 µM; TGI [33]: 40.8 µM; TGI [34]: > 100 µM; TGI [35]: 92.8 µM; TGI [36]: > 100 µM; TGI [37]: > 100 µM; TGI [38]: > 100 µM; TGI [39]: 61.5 µM; TGI [40]: > 100 µM; TGI [41]: > 100 µM; TGI [42]: > 100 µM; TGI [43]: > 100 µM; TGI [44]: > 100 µM; TGI [45]: 46.9 µM; TGI [46]: > 100 µM; TGI [47]: > 100 µM; TGI [48]: > 100 µM; TGI [49]: > 100 µM; TGI [50]: > 100 µM; TGI [51]: > 100 µM; TGI [52]: > 100 µM; TGI [53]: 72.3 µM; TGI [54]: > 100 µM; TGI [55]: > 100 µM; TGI [56]: > 100 µM

Question: Which results are given for C=C1CCC2C(C)(CO)C(O)CCC2(C)C1CC(O)/C(=C/CO)C(=O)O (stereo unspecified)?
Answer: TGI [1]: > 100 µM; TGI [2]: > 100 µM; TGI [3]: > 100 µM; TGI [4]: > 100 µM; TGI [5]: > 100 µM; TGI [57]: > 100 µM; TGI [6]: > 100 µM; TGI [7]: > 100 µM; TGI [8]: > 100 µM; TGI [9]: > 100 µM; TGI [10]: > 100 µM; TGI [11]: > 100 µM; TGI [12]: > 100 µM; TGI [13]: > 100 µM; TGI [14]: > 100 µM; TGI [15]: > 100 µM; TGI [16]: > 100 µM; TGI [17]: > 100 µM; TGI [18]: > 100 µM; TGI [19]: > 100 µM; TGI [20]: > 100 µM; TGI [21]: > 100 µM; TGI [22]: > 100 µM; TGI [23]: > 100 µM; TGI [24]: > 100 µM; TGI [25]: > 100 µM; TGI [26]: > 100 µM; TGI [29]: > 100 µM; TGI [30]: > 100 µM; TGI [32]: > 100 µM; TGI [33]: > 100 µM; TGI [34]: > 100 µM; TGI [35]: > 100 µM; TGI [36]: > 100 µM; TGI [37]: > 100 µM; TGI [38]: > 100 µM; TGI [40]: > 100 µM; TGI [41]: > 100 µM; TGI [58]: > 100 µM; TGI [43]: > 100 µM; TGI [44]: > 100 µM; TGI [45]: > 100 µM; TGI [46]: > 100 µM; TGI [47]: > 100 µM; TGI [48]: > 100 µM; TGI [59]: > 100 µM; TGI [49]: > 100 µM; TGI [50]: > 100 µM; TGI [51]: > 100 µM; TGI [52]: > 100 µM; TGI [53]: > 100 µM; TGI [55]: > 100 µM; TGI [56]: > 100 µM

Question: Which results are given for [C-]#[N+][C@@H]1C2[C@H](CC[C@@]1(C)O)C(=C)CC[C@@H]2[C@@]1(C)CC[C@H](Cl)C(C)(C)O1 (stereo partly specified)?
Answer: TGI [2]: 5.66 µM; TGI [3]: 27.7 µM; TGI [4]: 22.4 µM; TGI [6]: 39.4 µM; TGI [7]: 45.4 µM; TGI [8]: 12.6 µM; TGI [9]: 23.8 µM; TGI [10]: > 100 µM; TGI [11]: 28.3 µM; TGI [12]: 26.3 µM; TGI [13]: 82.6 µM; TGI [14]: 36.7 µM; TGI [15]: 20.9 µM; TGI [16]: > 100 µM; TGI [17]: 77.6 µM; TGI [18]: 16.8 µM; TGI [19]: 36.3 µM; TGI [20]: 18 µM; TGI [21]: 20.1 µM; TGI [22]: 52.6 µM; TGI [23]: 21.8 µM; TGI [24]: 9.08 µM; TGI [25]: > 100 µM; TGI [26]: 29.8 µM; TGI [27]: 60.2 µM; TGI [28]: 20.8 µM; TGI [29]: 12.8 µM; TGI [31]: 26.4 µM; TGI [32]: 21.9 µM; TGI [33]: 15.7 µM; TGI [34]: 48.1 µM; TGI [35]: 41.7 µM; TGI [36]: 33.7 µM; TGI [38]: 21 µM; TGI [39]: 53.4 µM; TGI [40]: 7.17 µM; TGI [41]: 33.2 µM; TGI [42]: 9.97 µM; TGI [43]: > 100 µM; TGI [44]: > 100 µM; TGI [45]: 12.8 µM; TGI [46]: 41.7 µM; TGI [47]: 50.8 µM; TGI [48]: 84.2 µM; TGI [59]: 27.8 µM; TGI [49]: > 100 µM; TGI [50]: 25 µM; TGI [51]: 21.9 µM; TGI [52]: 31.1 µM; TGI [53]: 35.4 µM; TGI [54]: > 100 µM; TGI [56]: 13.5 µM
